Measured values from US6545029B2, “Phenylserine derivatives as integrin antagonists” (Bayer Aktiengesellschaft, priority 2000, dated 2003).

Target: T1, αvβ3 from human placenta (Homo sapiens, UniProt P05106+P06756)
T1 construct: αvβ3 from human placenta; from tissue; host or cells: human placenta
Experiment: αvβ3/echistatin binding inhibition (I125-echistatin, scintillation proximity beads)
Settings: inhibition of I125-echistatin binding to αvβ3; 1 hour at room temperature; determined in duplicate from concentration series
Procedure: The substances were tested for their ability to inhibit αvβ3/echistatin binding analogously to Kumar C. C., Nie H. M., Rogers G. P., Malkowski M., Maxwell E., Catino J. J. and Armstrong L. (Journal of Pharmacology and Experimental Therapeutics 283(2)(1997)843-853).
αvβ3 from human placenta (Smith J. W. and Cheresh, D. A. (1988), J. Biol. Chem. 263, 18726-18732) (1 mg/ml 50 mM tris HCl pH 7.4, 100 mM NaCl, 2 mM CaCl2, 1% and octylglucoside) was diluted with test buffer (50 mM tris-HCl pH 7.4, 100 mM NaCl, 1 mM CaCl2, 1 mM MgCl2, 1 mM MnCl2, 0.1% bovine serum albumin) and 55 μl each of this αvβ3 solution were added to the wells of a 96-well microtiter plate (about 0.1-0.3 μg of αvβ3 per well). 2 μl of the substances to be tested dissolved in DMSO were then added. 10 μl (40,000 cpm) of I^125-echistatin per well were then added and the mixture was incubated for 1 hour at room temperature with careful shaking. It was then treated with 100 μg of wheatgerm-coated yttrium silicate beads (Amersham, type RPNQ0011) in 25 μl of distilled water. After 1 hour at room temperature, the cpm values were measured in a scintillation counter. The Ki values were determined in duplicate from concentration series. The nonspecific binding was determined in the presence of 0.1 μM unlabeled echistatin or by addition of 5 mM EDTA to the binding mixture.

T1 sequence (P06756 31-889 limits assumed): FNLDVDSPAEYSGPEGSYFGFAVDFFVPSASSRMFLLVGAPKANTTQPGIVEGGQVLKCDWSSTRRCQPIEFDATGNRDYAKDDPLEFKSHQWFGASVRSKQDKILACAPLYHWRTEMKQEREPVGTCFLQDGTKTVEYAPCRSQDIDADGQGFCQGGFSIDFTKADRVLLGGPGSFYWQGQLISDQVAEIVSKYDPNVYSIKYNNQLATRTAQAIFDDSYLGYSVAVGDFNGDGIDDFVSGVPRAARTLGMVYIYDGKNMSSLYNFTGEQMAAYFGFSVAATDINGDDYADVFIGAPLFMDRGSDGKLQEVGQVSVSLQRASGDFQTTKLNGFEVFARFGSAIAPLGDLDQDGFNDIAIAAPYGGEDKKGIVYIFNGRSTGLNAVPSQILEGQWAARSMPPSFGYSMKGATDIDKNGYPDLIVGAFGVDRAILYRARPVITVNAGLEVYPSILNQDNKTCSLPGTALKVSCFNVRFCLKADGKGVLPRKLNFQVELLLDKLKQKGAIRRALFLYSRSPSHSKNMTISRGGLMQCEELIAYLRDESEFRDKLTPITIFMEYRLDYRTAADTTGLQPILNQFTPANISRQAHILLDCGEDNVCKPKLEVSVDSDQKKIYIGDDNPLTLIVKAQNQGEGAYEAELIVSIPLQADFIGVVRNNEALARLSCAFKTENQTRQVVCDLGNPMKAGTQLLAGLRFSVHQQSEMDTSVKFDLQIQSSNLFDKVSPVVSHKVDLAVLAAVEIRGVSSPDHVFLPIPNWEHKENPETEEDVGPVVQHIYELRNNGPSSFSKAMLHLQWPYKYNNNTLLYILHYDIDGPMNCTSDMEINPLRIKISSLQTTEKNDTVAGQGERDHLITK
T1 sequence (P06756 891-1048 partner limits assumed): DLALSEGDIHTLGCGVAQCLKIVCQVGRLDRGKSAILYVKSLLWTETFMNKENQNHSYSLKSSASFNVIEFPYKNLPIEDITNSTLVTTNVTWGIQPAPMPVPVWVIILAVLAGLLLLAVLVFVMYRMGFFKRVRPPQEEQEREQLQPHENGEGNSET
T1 sequence (P05106 27-788): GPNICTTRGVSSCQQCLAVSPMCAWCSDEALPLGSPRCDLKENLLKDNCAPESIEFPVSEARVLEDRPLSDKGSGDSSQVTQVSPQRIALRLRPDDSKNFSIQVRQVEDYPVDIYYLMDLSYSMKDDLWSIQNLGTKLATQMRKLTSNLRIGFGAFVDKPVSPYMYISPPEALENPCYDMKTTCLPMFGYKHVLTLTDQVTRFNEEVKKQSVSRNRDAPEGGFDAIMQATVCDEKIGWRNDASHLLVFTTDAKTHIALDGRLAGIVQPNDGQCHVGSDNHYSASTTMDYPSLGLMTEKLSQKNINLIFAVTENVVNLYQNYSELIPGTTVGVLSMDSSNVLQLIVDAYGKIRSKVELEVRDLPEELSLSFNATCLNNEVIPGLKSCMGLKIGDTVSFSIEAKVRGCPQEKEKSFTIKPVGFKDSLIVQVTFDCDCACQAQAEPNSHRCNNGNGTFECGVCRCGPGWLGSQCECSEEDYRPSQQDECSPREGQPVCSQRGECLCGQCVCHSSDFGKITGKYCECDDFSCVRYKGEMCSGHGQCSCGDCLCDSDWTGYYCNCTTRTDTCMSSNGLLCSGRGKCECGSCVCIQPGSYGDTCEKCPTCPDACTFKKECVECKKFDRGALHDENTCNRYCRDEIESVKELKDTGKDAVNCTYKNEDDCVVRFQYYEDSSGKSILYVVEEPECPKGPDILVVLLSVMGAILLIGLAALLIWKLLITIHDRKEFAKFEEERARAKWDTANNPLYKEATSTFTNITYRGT

`CCCNC(=O)Nc1cccc(-c2ccc(OC[C@H](NS(=O)(=O)c3c(C)cc(C)cc3C)C(=O)O)cc2)c1` [Example 20, N-(Mesitylsulfonyl)-O-(3′-{[(propylamino)carbonyl]amino}-1,1′-biphenyl-4-yl)-L-serine] gave a Ki of 4 nM.
